Measured values from PubChem BioAssay (NCI).
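Briefly, cells in 96-well plates were exposed to five compound concentrations for 48 h, and endpoints were estimated by linear interpolation. Here, GI50 denotes the concentration required for 50% inhibition of growth. At the TGI there is no net growth.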

Assays:
Assay in all cases: DTP human tumour cell line panel, 48 h
SF-539 CNS = test system: SF-539 CNS
DMS 114 small cell lung = test system: DMS 114 small cell lung
CAKI-1 renal = test system: CAKI-1 renal
HOP-62 NSCLC = test system: HOP-62 NSCLC
UO-31 renal = test system: UO-31 renal
786-0 renal = test system: 786-0 renal
SN12C renal = test system: SN12C renal
NCI-H23 lung = test system: NCI-H23 lung
HCT-15 colon = test system: HCT-15 colon
A498 renal = test system: A498 renal

Row | Structure (SMILES) | TGI (SF-539 CNS) | TGI (DMS 114 small cell lung) | TGI (CAKI-1 renal) | TGI (HOP-62 NSCLC) | TGI (UO-31 renal) | TGI (786-0 renal) | TGI (SN12C renal) | TGI (NCI-H23 lung) | TGI (HCT-15 colon) | GI50 (HOP-62 NSCLC) | GI50 (SN12C renal) | GI50 (NCI-H23 lung) | TGI (A498 renal) | GI50 (SF-539 CNS) | GI50 (CAKI-1 renal) | GI50 (UO-31 renal) | GI50 (786-0 renal) | GI50 (HCT-15 colon) | GI50 (A498 renal)
1 | CC(C)[C@H]1CO[C@]2(C)[C@@H]3CN(Cc4ccccc4)C[C@@H]3C(=O)N12 | > 100 µM | > 100 µM | > 100 µM | > 100 µM | > 100 µM | > 100 µM | > 100 µM | > 100 µM | > 100 µM |  |  |  |  |  |  |  |  |  | 
2 | COc1cc(/C=C/c2cc(O)c3cc(C(C)=O)c(=O)oc3c2)cc2c1O[C@]1(C)CC[C@@H](O)C(C)(C)[C@H]1C2 | > 23.6 µM |  | > 39.4 µM | > 79.9 µM | > 26.2 µM | > 25.3 µM | > 68 µM | > 55 µM | > 31.8 µM | > 26.8 µM | > 33 µM | > 22.2 µM | > 28.2 µM |  |  |  |  |  | 
3 | Cc1cc(N(CCCl)CCCl)ccc1C=Nc1ccc(-c2csc(Cc3ccccc3)n2)cc1 | 29.4 µM |  | 30.5 µM | > 83 µM | 26.8 µM | 49.1 µM | 62.8 µM | 44.1 µM | > 79.9 µM | 5.72 µM | 3.85 µM | 8.96 µM | 1.13 µM | 5.41 µM | 2.18 µM | 2.61 µM | 5.86 µM | 15.2 µM | 0.144 µM
4 | O=c1cc(-c2ccccc2)[nH]c2ccccc12 | 9.66 µM |  | > 100 µM | > 100 µM | > 100 µM | > 100 µM | > 100 µM | > 100 µM | > 100 µM | 4.85 µM | 1.73 µM | 1.16 µM | 33 µM | 0.412 µM | 0.825 µM | 3.28 µM | 2.81 µM | 0.481 µM | 0.428 µM
5 | O=C(NCCO)Nc1ccc(-c2nc(N3CCOCC3)c3cccn3n2)cc1 | 5.72 µM |  | > 100 µM | 3.85 µM | 1.63 µM | 6.14 µM | > 100 µM | > 100 µM | > 100 µM | 0.122 µM | 0.567 µM | 0.239 µM | 0.125 µM | 0.315 µM | 1.16 µM | 0.0573 µM | 0.218 µM | 0.359 µM | < 0.0373 µM
6 | CN1CCC(n2cnc(-c3ccc(F)cc3)c2-c2ccnc(NCCO)n2)CC1 | > 25 µM |  | > 25 µM | > 25 µM | > 25 µM | > 25 µM | > 25 µM | > 25 µM | > 25 µM | > 25 µM | > 18.9 µM | > 25 µM | > 25 µM | > 25 µM | > 17.9 µM | 13.6 µM | > 23.9 µM | 20.7 µM | 14.8 µM
7 | COc1cccc(-n2ncc3c(N/N=C/c4ccc(C(=O)NCCN(C)C)cc4)ncnc32)c1 | 7.79 µM |  | 5.48 µM | 7.81 µM | 5.88 µM | 8.14 µM | 6.99 µM | 8.29 µM | 6.83 µM | 4.14 µM | 3.01 µM | 3.89 µM | > 25 µM | 3.78 µM | 1.27 µM | 1.64 µM | 3.58 µM | 2.85 µM | > 13.6 µM
8 | COC(=O)[C@H](C[C@H](Cc1ccccc1)NC(=O)c1csc([C@@H](C[C@H](C(C)C)N(C)C(=O)[C@@H](NC(=O)[C@H]2CCCCN2C)C(C)C)OC(C)=O)n1)NC(=O)OCc1ccccc1 | 0.00367 µM |  | > 9 µM | > 9 µM | > 9 µM | > 3.67 µM | > 9 µM | > 9 µM | > 9 µM | < 0.0009 µM | < 0.0009 µM | 0.00111 µM | 0.0101 µM | < 0.0009 µM | 0.00168 µM | 0.0111 µM | 0.00159 µM | 0.00401 µM | 0.00112 µM
9 | C1C[OH+]CC[OH+]CCNCC[OH+]CC[OH+]CCN1.N.[Cl-].[Pt+4] | 19.6 µM |  | 37.8 µM | 66.3 µM | 32 µM | 39.2 µM | > 100 µM | 12 µM | 71.6 µM | 6.11 µM | 18.7 µM | 1.8 µM | 55.1 µM | 3.95 µM | 7.5 µM | 12.2 µM | 3.98 µM | 20.2 µM | 21.3 µM
10 | O=C1/C(=C\c2c[nH]c3ccccc23)c2ccccc2N1c1c(Cl)cccc1Cl | 3.01 µM |  | 4.53 µM | 2.75 µM | 3.23 µM | 3.21 µM | 2.89 µM | 3.38 µM | 2.92 µM | 1.38 µM | 1.53 µM | 1.66 µM | 4.86 µM | 1.59 µM | 1.43 µM | 1.4 µM | 1.74 µM | 1.16 µM | 3.09 µM
11 | CC[C@@H](C(=O)O)C1CC[C@H](C)C([C@@H](C)[C@H](O)[C@H](C)C(=O)[C@H](CC)C2O[C@]3(C=C[C@@H](O)[C@]4(CC[C@@](C)(C5CC[C@](O)(CC)[C@H](C)O5)O4)O3)[C@H](C)C[C@@H]2C)O1 (stereo partly drawn) | 3.9 µM |  | 18.2 µM | 21.7 µM | 15.9 µM | 7.92 µM | 28.7 µM | 5.76 µM | 21.8 µM | 1.11 µM | 0.128 µM | 0.186 µM | 0.799 µM | 0.309 µM | 0.19 µM | 0.784 µM | 0.656 µM | 0.446 µM | 0.0458 µM
12 | COc1cc(C2CC(c3ccc4c(c3)OCO4)=NN2C=O)cc(OC)c1OC (stereo not drawn) | 13 µM |  | > 100 µM | > 100 µM | > 100 µM | > 100 µM | > 100 µM | > 100 µM | > 100 µM | 2.81 µM | 13.6 µM | 4.14 µM |  | 2.06 µM | 1.25 µM | 3.81 µM | 5.26 µM | 1.58 µM | 0.828 µM
13 | COc1ccc(/C(C#N)=C/c2ccccc2OC)cc1 | > 100 µM |  | > 100 µM | > 100 µM | > 100 µM | > 100 µM | > 100 µM | > 100 µM | > 100 µM | 19.9 µM | 21.1 µM | 18.8 µM | > 100 µM | 20.5 µM | 6.49 µM | 17 µM | 15.2 µM | 6.25 µM | 5.37 µM
14 | COc1ccc(-c2c3c(N)nc(-c4ccncc4)nc3nc3c2c(C)nn3-c2ccccc2)cc1 | 4.97 µM |  | > 100 µM | 37.6 µM | > 100 µM | > 100 µM | > 100 µM | > 100 µM | > 100 µM | 2.41 µM | 44.4 µM | 9.67 µM | > 100 µM | 1.93 µM | > 100 µM | 50.7 µM | 7.12 µM | > 100 µM | 12.3 µM
15 | CC1OC(O[C@@H]2OC=C(C=O)[C@@]3(O)CC[C@H](C)[C@@H]23)C(O)C(O)C1O (stereo partly drawn) | > 100 µM |  | > 100 µM | > 100 µM | > 100 µM | > 100 µM | > 100 µM | > 100 µM | > 100 µM |  |  |  | > 100 µM |  |  |  |  |  | 
16 | COc1ccc(/C=C2\CCCC3=C2N=C2SC(C)=NN2C3c2ccc(OC)c(OC)c2)cc1OC (stereo not drawn) | > 100 µM |  | > 100 µM | > 100 µM | 43.9 µM | > 100 µM | > 100 µM | > 100 µM | 19.4 µM | 19.8 µM | 14 µM | 8.2 µM | 86.3 µM | 8.15 µM | 4.82 µM | 5.99 µM | 11 µM | 3.49 µM | 2 µM
17 | CC(CCC(=O)O)[C@H]1CCC2[C@@H]3CC[C@@H]4CC(O)CC[C@]4(C)C3CC[C@@]21C (stereo partly drawn) | 72.4 µM |  | 72.3 µM | > 100 µM | 67.3 µM | > 100 µM | > 100 µM | 37.9 µM | > 100 µM | 37.2 µM | > 100 µM | 15.6 µM | > 100 µM | 26 µM | 26.7 µM | 22.1 µM | 49.3 µM | 46.4 µM | 
18 | Cn1cc(-c2ccc3occ(-c4cccc(-c5ccncc5)c4)c3n2)cn1 | 5.54 µM |  | > 100 µM | > 100 µM | > 100 µM | > 100 µM | > 100 µM | > 100 µM | > 100 µM | 0.815 µM | 1.32 µM | 1.26 µM | 0.832 µM | 0.734 µM | 0.38 µM | 1.46 µM | 1.25 µM | 0.285 µM | 0.159 µM
19 | COc1ccc2sc3c(NCCCN(C)C)nc4ccccc4c3c(=O)c2c1 | 3.06 µM |  | 2.95 µM | 3.2 µM | 2.84 µM | 2.71 µM | 3.2 µM | 3.06 µM | 2.7 µM | 1.6 µM | 1.71 µM | 1.59 µM | 2.78 µM | 1.63 µM | 1.6 µM | 1.47 µM | 1.34 µM | 1.36 µM | 1.38 µM
20 | Cc1ccc(-c2cn3ccnc3c(-c3ccc(Cl)cc3)n2)cc1 | 1.35 µM |  | 2.84 µM | > 68.6 µM | > 100 µM | > 59.8 µM | 62.5 µM | 27.6 µM | > 35.6 µM | 3.69 µM | 0.532 µM | 0.433 µM | 8.11 µM | 0.0422 µM | 0.0361 µM |  | 0.966 µM | 1.23 µM | 0.389 µM
